The values below come from publication PMC3944524, “Antimicrobial Activity of the Marine Alkaloids, Clathrodin and Oroidin, and Their Synthetic Analogues” (Marine Drugs, 2014).

In brackets after ≈: the same amount, converted by molar mass.

The test system of data set [1] is Enterococcus faecalis (ATCC 29212). In words: Broth microdilution antimicrobial assay, Enterococcus faecalis. The class given is cell-based. Particulars: for inhibition at 50 µM / inhibition of growth, primary screen: n = 3, hit threshold >80%, 50 µM; for inhibition at 50 µM: read-out: inhibition of growth, primary screen. The protocol:
(§1) Clinical control strains of Enterococcus faecalis (Gram-positive, ATCC 29212), Staphylococcus aureus (Gram-positive, ATCC 25923), Escherichia coli (Gram-negative, ATCC 25922) and a fungal strain, Candida albicans (ATCC 90028), were obtained from Microbiologics Inc. (St. Cloud, MN, USA) and used for the antimicrobial screening. Bacterial strains were grown on Mueller Hinton II agar (MHA, Becton Dickinson, Franklin Lakes, NJ, USA) […] Mueller Hinton II broth (MHB, Becton Dickinson, Franklin Lakes, NJ, USA) and the Candida strain on Sabouraud dextrose agar (SDA, Becton Dickinson, Franklin Lakes, NJ, USA) plates. Media were prepared in MilliQ water, according to the manufacturer's instructions, and autoclaved at 121 °C for 15 min. […] The Candida strain was grown on SDA plates at 28 °C for 18-24 h and suspended into sterile 0.9% saline for the assay. Antimicrobial assays were performed by the broth microdilution method following the guidelines of the Clinical and Laboratory Standards Institute (CLSI) and European Committee on Antimicrobial Susceptibility Testing (EUCAST). […] The Candida suspension was prepared in sterile 0.9% saline solution, and the suspension was diluted in RPMI-1640 media (with L-glutamine, without NaHCO3 and supplemented with 2% glucose and 0.165 M MOPS, buffered to pH 7; Lonza, Basel, Switzerland) to yield a final inoculum of 2.5 × 10^3 CFU/mL in the assay. Assays were carried out in clear 96-well microtiter plates and initiated by dispensing an equal volume of microbial suspension and sample solution diluted into the assay medium. The plates were incubated for 24 h at 37 °C (for Candida, the incubation was at 28 °C for 48 h) with agitation. […] The antimicrobial activity of the samples was calculated from the absorbance values by comparing to untreated controls and expressed as the percentage inhibition of growth. Reference antibiotics were used as positive controls on every assay plate (see Figure 2 for details). […] MIC50 values were determined from the dose-response results by sigmoidal curve fitting with Origin software (OriginLab, Corp., Wellesley Hills, MA, USA).
(Broth dilution looks for growth in wells or tubes with falling amounts of substance.)

The subject of data set [2] is Staphylococcus aureus (ATCC 25923). As to the kind of experiment: Broth microdilution antimicrobial assay, Staphylococcus aureus. The class given is cell-based. The following applies: for inhibition at 50 µM / MIC90 / MIC50: Staphylococcus aureus; for inhibition at 50 µM / inhibition of growth, primary screen: n = 3, hit threshold >80%, 50 µM; for inhibition at 50 µM: read-out: inhibition of growth, primary screen; for SI (selectivity index): S. aureus MIC50 vs Huh-7 cytotoxicity IC50; for MIC50: sigmoidal curve fitting. As for the experimental part:
as §1

The subject of data set [3] is Escherichia coli (ATCC 25922). In words: Broth microdilution antimicrobial assay, Escherichia coli. Format: cell-based. As for the experimental part: as §1
Data set [4] has as its system Candida albicans (ATCC 90028). As to the kind of experiment: Broth microdilution antifungal assay, Candida albicans. Format: cell-based. As for the experimental part: Clinical control strains of Enterococcus faecalis (Gram-positive, ATCC 29212), Staphylococcus aureus (Gram-positive, ATCC 25923), Escherichia coli (Gram-negative, ATCC 25922) and a fungal strain, Candida albicans (ATCC 90028), were obtained from Microbiologics Inc. (St. Cloud, MN, USA) and used for the antimicrobial screening. Bacterial strains were grown on Mueller Hinton II agar (MHA, Becton Dickinson, Franklin Lakes, NJ, USA) slants and Mueller Hinton II broth (MHB, Becton Dickinson, Franklin Lakes, NJ, USA) and the Candida strain on Sabouraud dextrose agar (SDA, Becton Dickinson, Franklin Lakes, NJ, USA) plates. Media were prepared in MilliQ water, according to the manufacturer’s instructions, and autoclaved at 121 °C for 15 min. Prior to the assay, bacterial suspensions were prepared in MHB from fresh slant cultures and incubated at 37 °C for 16–20 h at 100 rpm. The Candida strain was grown on SDA plates at 28 °C for 18–24 h and suspended into sterile 0.9% saline for the assay.
Antimicrobial assays were performed by the broth microdilution method following the guidelines of the Clinical and Laboratory Standards Institute (CLSI) and European Committee on Antimicrobial Susceptibility Testing (EUCAST). Bacterial suspensions were prepared as described above and diluted with MHB to obtain a final inoculum of 5 × 10^5 colony-forming units (CFU)/milliliters in the assay (determined on the basis of absorbance values at 620 nm previously calibrated against plate counts). The Candida suspension was prepared in sterile 0.9% saline solution, and the suspension was diluted in RPMI-1640 media (with L-glutamine, without NaHCO3 and supplemented with 2% glucose and 0.165 M MOPS, buffered to pH 7; Lonza, Basel, Switzerland) to yield a final inoculum of 2.5 × 10^3 CFU/mL in the assay. Assays were carried out in clear 96-well microtiter plates and initiated by dispensing an equal volume of microbial suspension and sample solution diluted into the assay medium. The plates were incubated for 24 h at 37 °C (for Candida, the incubation was at 28 °C for 48 h) with agitation. Absorbance was measured at 620 nm with a plate reader at 0, 4 and 24 h with the bacteria and at 0, 24 and 48 h with Candida. The antimicrobial activity of the samples was calculated from the absorbance values by comparing to untreated controls and expressed as the percentage inhibition of growth. Reference antibiotics were used as positive controls on every assay plate (see Figure 2 for details). […] MIC50 values were determined from the dose-response results by sigmoidal curve fitting with Origin software (OriginLab, Corp., Wellesley Hills, MA, USA).

Data set [5] can be described thus: Mammalian cell cytotoxicity, ATP assay (CellTiter-Glo). The class given is cell-based, human. Particulars: human, Huh-7 cells, ATP assay, 24 h exposure, average of two dose-response experiments. The protocol: (§2) Huh-7 cells (originating from human hepatocellular carcinoma) were kindly provided by Prof. Ralf Bartenschlager (University of Heidelberg, Heidelberg, Germany). […] The cells were incubated at 37 °C in a humidified atmosphere with 5% CO2. The effect of the most promising compounds on the metabolic activity of Huh-7 hepatocytes was assessed by intracellular ATP quantitation (Promega’s CellTiter-Glo Cell Viability Assay, Madison, WI, USA). In brief, cells were seeded at 20,000 cells/well on white-walled 96-well microplates (ViewPlate, PerkinElmer Inc., Wellesley, MA, USA) and incubated at 37 °C, 5% CO2 and 95% humidity overnight and then exposed to the compounds for 24 h. Following the exposure, cells were washed with 100 µL PBS, and 50 µL of fresh assay media and 50 µL of the CellTiter-Glo reagent were added into the wells. After 2 min of shaking and 10 min incubation at rt, luminometric signal was measured using a Varioskan Flash plate reader (Thermo Fisher Scientific, Vantaa, Finland). […] The IC50 values were calculated by fitting the data into sigmoidal dose-response curves with the Origin software.
(In general: In ATP-based viability assays light output follows the ATP content of the culture.)

The subject of a further data set is Huh-7 cells. The description is as above. Format: cell-based, human. The protocol: as §2
[6] abbreviates: Enterococcus faecalis, ATCC29212, 24 h.
[7] abbreviates: ATCC25923, S. aureus ATCC 25923, 24 h.
The mark [8] stands for this setting: 50 µM, 24 h, n = 3, hit threshold >80%.
The mark [9] stands for this setting: 50 µM, 48 h, n = 3, hit threshold >80%.

As to `Nc1nc(/C=C/CNC(=O)c2ccc[nH]2)c[nH]1` [Compound 2a, (E)-N-(3-(2-amino-1H-imidazol-4-yl)allyl)-1H-pyrrole-2-carboxamide], the inhibition at 50 µM in data set [1] (setting [6]) was less than 80%; in data set [2] (ATCC25923, 24 h), less than 80%; in data set [3] (Escherichia coli, ATCC25922, 50 µM, 24 h, n = 3, hit threshold >80%, read-out: inhibition of growth, primary screen), less than 80%; in data set [4] (Candida albicans, ATCC90028, 50 µM, 48 h, n = 3, hit threshold >80%, read-out: inhibition of growth, primary screen), less than 80%.

With `Nc1nc(/C=C/CNC(=O)c2cc(Br)c(Br)[nH]2)c[nH]1` [Compound 2b, (E)-N-(3-(2-amino-1H-imidazol-4-yl)allyl)-4,5-dibromo-1H-pyrrole-2-carboxamide], the inhibition at 50 µM in data set [1] (setting [6]) is roughly 50%; in data set [2] (ATCC25923, 24 h), greater than 90%. Moreover, the “SI (selectivity index)” value in data set [2] is on record as greater than 3.3. Moreover, the MIC90 in data set [2] (ATCC25923, 24 h) turned out to be 100 µM. The MIC50 in data set [2] (setting [7]) worked out at 30.6 µM (≈ 11.9 µg/mL). Further, the “inhibition of growth, primary screen” value in data set [3] (setting [8]) and in data set [4] (setting [9]) was “inactive” in each case. The IC50 at 24 h in data set [5] was greater than 100 µM.

Regarding `CC(C)(C)OC(=O)n1cc(-c2cccc(NC(=O)c3cc4cc(Cl)ccc4[nH]3)c2)nc1N` [Compound 5i, tert-Butyl 2-amino-4-(3-(5-chloro-1H-indole-2-carboxamido)phenyl)-1H-imidazole-1-carboxylate], the melting point is 188 to 190 °C. For the same molecule, in data set [2], the “SI (selectivity index)” value was greater than 8.6. Besides, in data set [2] (ATCC25923, 24 h), the MIC90 came to 75 µM. The MIC50 in data set [2] (setting [7]) is 11.7 µM (≈ 5.29 µg/mL). In addition, the half-maximal inhibitory concentration (IC50) at 24 h in data set [5] was greater than 100 µM. Moreover, the “cytotoxicity at highest tested concentration” value in the data set with Huh-7 cells (100 µM) is reported as “non-cytotoxicity”.

In the case of `Nc1nc(-c2cccc(NC(=O)c3c[nH]c4ccccc34)c2)c[nH]1` [Compound 6e], the “inhibition of growth, primary screen” value in data set [1] (24 h), in data set [2] (24 h), in data set [3] (setting [8]) and in data set [4] (setting [9]) was “inactive” in each case.

`Cl.Nc1nc(-c2cccc(NC(=O)c3cc4cc(OCc5ccccc5)ccc4[nH]3)c2)c[nH]1` [Compound 6h, 2-Amino-4-(3-(5-(benzyloxy)-1H-indole-2-carboxamido)phenyl)-1H-imidazol-3-ium chloride] came in with a melting point of 175 to 178 °C. Moreover, the “inhibition of growth, primary screen” value in data set [1] (24 h) is “active”. In addition, the “SI (selectivity index)” value in data set [1] (E. faecalis MIC50 vs Huh-7 cytotoxicity IC50) was determined as 2.7. Further, the MIC90 in data set [1] (setting [6]) came out at 12.5 µM. The MIC90 in data set [1] (Enterococcus faecalis, ATCC29212, E. faecalis ATCC 29212, 24 h) was found to be 5.7 µg/mL. This molecule had an MIC50 in data set [1] (Enterococcus faecalis, ATCC29212, E. faecalis ATCC 29212, 24 h, sigmoidal curve fitting) of 8 µM. Moreover, the “inhibition of growth, primary screen” value in data set [2] (24 h) is recorded as “active”. For the same molecule, the “SI (selectivity index)” value in data set [2] is 2.9. Besides, in data set [2] (ATCC25923, 24 h), the MIC90 worked out at 12.5 µM. In data set [2] (setting [7]), this molecule displayed an MIC90 of 5.7 µg/mL and an MIC50 of 7.3 µM. Also, the “inhibition of growth, primary screen” value in data set [3] (setting [8]) is “active”. For the same molecule, the “SI (selectivity index)” value in data set [3] (E. coli MIC50 vs Huh-7 cytotoxicity IC50) amounted to 0.7. The MIC90 in data set [3] (Escherichia coli, ATCC25922, 24 h) came to 50 µM. In data set [3] (Escherichia coli, ATCC25922, E. coli ATCC 25922, 24 h, sigmoidal curve fitting), this molecule registered an MIC50 of 30.4 µM. For the same molecule, in data set [4] (setting [9]), the “inhibition of growth, primary screen” value is “no activity”. Also, in data set [5], 21.2 µM corresponded to half-maximal inhibition (IC50 at 24 h).

On to `C[C@@H]1[C@H](O)[C@@H](C)/C=C/C=C/C=C/C=C/C=C/C=C/C=C/[C@H](O[C@@H]2O[C@H](C)[C@@H](O)[C@H](N)[C@@H]2O)C[C@@H]2O[C@](O)(C[C@@H](O)C[C@@H](O)[C@H](O)CC[C@@H](O)C[C@@H](O)CC(=O)O[C@H]1C)C[C@H](O)[C@H]2C(=O)O` [amphotericin B, reference compound], for which the MIC90 in data set [4] (Candida albicans, ATCC90028, 48 h) was 0.5 µM; in data set [4] (Candida albicans, ATCC90028, C. albicans ATCC 90028, 48 h), 0.5 µg/mL.

For “Polymyxin-B sulfate [reference compound]”, the average cytotoxicity with Huh-7 cells (15,000 IU/mL, positive control, 24 h) is 88%.

The term inhibition denotes the relative decrease from the control value, in per cent. What is called MIC90 is an inhibitory concentration at the 90% level, which refers to growth in some studies and to a panel of isolates in others. A higher MIC90 goes with lower susceptibility. The MIC50 is an inhibitory concentration at the 50% level, which refers to growth in some studies and to a panel of isolates in others. Read a high MIC50 as lower susceptibility. One may read the IC50 as the concentration that gives 50% inhibition. The term melting point denotes the temperature of the solid-liquid transition.
